Assay results as given in paper PMC9487510, “A Novel Oral GyrB/ParE Dual Binding Inhibitor Effective against Multidrug-Resistant Neisseria gonorrhoeae and Other High-Threat Pathogens” (Antimicrobial Agents and Chemotherapy, 2022).
Converted amounts (≈) assume the structure as drawn. Where two headings read alike, the source gives them in different places.

Key:
[1] = system: E. coli, Pseudomonas aeruginosa, Klebsiella pneumoniae, Acinetobacter baumannii, Francisella tularensis, Yersinia pestis; test: organism not typed; type: cell-based
[2] = system: VRSA; test: MIC, in vitro susceptibility testing (CLSI); type: cell-based, Staphylococcus aureus; conditions: for MIC: Staphylococcus aureus, VRSA
[3] = system: N. gonorrhoeae clinical isolates; test: MIC, agar dilution (CLSI); type: cell-based, Neisseria gonorrhoeae; conditions: for MIC: Neisseria gonorrhoeae, read-out: MIC

Compound: CNc1cc(F)cc2c1[nH]c1nc(Oc3cnc(C)nc3)nc(N3CCC4(CC3)CO[C@@H](CO)C4)c12 [JSF-2414]
- MIC [1]: > 500 ng/mL
- MIC range ([2]; N = 7 (Van: 9)): 15.6 to 31 ng/mL
- MIC ([2]; strain 2 25 23): 16 ng/mL (≈ 32.4 nM)
- MIC ([2]; strain 2 25 24): 16 to 31 ng/mL (≈ 32.4 to 62.8 nM)
- MIC ([2]; strain 2 25 25): 16 to 31 ng/mL (≈ 32.4 to 62.8 nM)
- MIC ([2]; strain 2 25 26): 15.6 to 31 ng/mL (≈ 31.6 to 62.8 nM)
- MIC ([2]; strain 2 25 27): 31 ng/mL (≈ 62.8 nM)
- MIC ([2]; strain 2 25 28): 15.6 to 31 ng/mL (≈ 31.6 to 62.8 nM)
- MIC ([2]; strain VRS2 (VRS-2)): 31 ng/mL (≈ 62.8 nM)
- MIC range ([3]; 96 clinical isolates): 0.5 to 30 ng/mL
- MIC ([3]; ATCC700825, antibiotic-susceptible strain ATCC 700825): 3.9 ng/mL (≈ 7.9 nM)
- MIC ([3]; multidrug-resistant strain H041): 7.8 ng/mL (≈ 15.8 nM)
- MIC ([3]; strain CDC1 (GCREF2012 016)): 3.9 ng/mL (≈ 7.9 nM)
- MIC ([3]; strain CDC2 (GCREF2012 045)): 3.9 ng/mL (≈ 7.9 nM)
- MIC ([3]; strain CDC3 (GCREF2013 013)): 3.9 ng/mL (≈ 7.9 nM)
- MIC ([3]; strain CDC4 (GCREF2013 030)): 3.9 ng/mL (≈ 7.9 nM)
- MIC ([3]; strain CDC5 (GCREF2012 001)): 3.9 ng/mL (≈ 7.9 nM)
- MIC ([3]; strain CDC6 (GCREF2012 002)): 7.8 ng/mL (≈ 15.8 nM)
- MIC ([3]; strain CDC8 (GCREF2012 004)): 2 ng/mL (≈ 4.05 nM)
- MIC ([3]; strain CDC9 (GCREF2012 005)): 3.9 ng/mL (≈ 7.9 nM)
- MIC ([3]; strain CDC10 (GCREF2012 006)): 3.9 ng/mL (≈ 7.9 nM)
- MIC ([3]; strain CDC11 (GCREF2012 007)): 3.9 ng/mL (≈ 7.9 nM)
- MIC ([3]; strain CDC12 (GCREF2012 008)): 3.9 ng/mL (≈ 7.9 nM)
- MIC ([3]; strain CDC13 (GCREF2012 009)): 3.9 ng/mL (≈ 7.9 nM)
- MIC ([3]; strain CDC14 (GCREF2012 010)): 3.9 ng/mL (≈ 7.9 nM)
- MIC ([3]; strain CDC15 (GCREF2012 011)): 7.8 ng/mL (≈ 15.8 nM)
- MIC ([3]; strain CDC16 (GCREF2012 012)): 7.8 ng/mL (≈ 15.8 nM)
- MIC ([3]; strain CDC18 (GCREF2012 014)): 7.8 ng/mL (≈ 15.8 nM)
- MIC ([3]; strain CDC19 (GCREF2012 015)): 3.9 ng/mL (≈ 7.9 nM)
- MIC ([3]; strain CDC20 (GCREF2012 017)): 16 ng/mL (≈ 32.4 nM)
- MIC ([3]; strain CDC21 (GCREF2012 018)): 3.9 ng/mL (≈ 7.9 nM)
- MIC ([3]; strain CDC22 (GCREF2012 019)): 30 ng/mL (≈ 60.8 nM)
- MIC ([3]; strain CDC23 (GCREF2012 020)): 7.8 ng/mL (≈ 15.8 nM)
- MIC ([3]; strain CDC24 (GCREF2012 021)): 3.9 ng/mL (≈ 7.9 nM)
- MIC ([3]; strain CDC25 (GCREF2012 022)): 3.9 ng/mL (≈ 7.9 nM)
- MIC ([3]; strain CDC26 (GCREF2012 023)): 7.8 ng/mL (≈ 15.8 nM)
- MIC ([3]; strain CDC27 (GCREF2012 024)): 3.9 ng/mL (≈ 7.9 nM)
- MIC ([3]; strain CDC28 (GCREF2012 025)): 3.9 ng/mL (≈ 7.9 nM)
- MIC ([3]; strain CDC29 (GCREF2012 026)): 7.8 ng/mL (≈ 15.8 nM)
- MIC ([3]; strain CDC30 (GCREF2012 027)): 7.8 ng/mL (≈ 15.8 nM)
- MIC ([3]; strain CDC31 (GCREF2012 028)): 7.8 ng/mL (≈ 15.8 nM)
- MIC ([3]; strain CDC32 (GCREF2012 029)): 7.8 ng/mL (≈ 15.8 nM)
- MIC ([3]; strain CDC33 (GCREF2012 030)): 7.8 ng/mL (≈ 15.8 nM)
- MIC ([3]; strain CDC34 (GCREF2012 031)): 3.9 ng/mL (≈ 7.9 nM)
- MIC ([3]; strain CDC35 (GCREF2012 032)): 3.9 ng/mL (≈ 7.9 nM)
- MIC ([3]; strain CDC36 (GCREF2012 033)): 2 ng/mL (≈ 4.05 nM)
- MIC ([3]; strain CDC37 (GCREF2012 034)): 3.9 ng/mL (≈ 7.9 nM)
- MIC ([3]; strain CDC38 (GCREF2012 035)): 3.9 ng/mL (≈ 7.9 nM)
- MIC ([3]; strain CDC39 (GCREF2012 036)): 3.9 ng/mL (≈ 7.9 nM)
- MIC ([3]; strain CDC40 (GCREF2012 037)): 3.9 ng/mL (≈ 7.9 nM)
- MIC ([3]; strain CDC41 (GCREF2012 038)): 3.9 ng/mL (≈ 7.9 nM)
- MIC ([3]; strain CDC42 (GCREF2012 039)): 3.9 ng/mL (≈ 7.9 nM)
- MIC ([3]; strain CDC43 (GCREF2012 040)): 3.9 ng/mL (≈ 7.9 nM)
- MIC ([3]; strain CDC45 (GCREF2012 042)): 7.8 ng/mL (≈ 15.8 nM)
- MIC ([3]; strain CDC46 (GCREF2012 043)): 3.9 ng/mL (≈ 7.9 nM)
- MIC ([3]; strain CDC47 (GCREF2012 044)): 3.9 ng/mL (≈ 7.9 nM)
- MIC ([3]; strain CDC48 (GCREF2012 046)): 3.9 ng/mL (≈ 7.9 nM)
- MIC ([3]; strain CDC49 (GCREF2012 047)): 3.9 ng/mL (≈ 7.9 nM)
- MIC ([3]; strain CDC50 (GCREF2012 048)): 7.8 ng/mL (≈ 15.8 nM)
- MIC ([3]; strain CDC51 (GCREF2012 049)): 3.9 ng/mL (≈ 7.9 nM)
- MIC ([3]; strain CDC52 (GCREF2012 050)): 3.9 ng/mL (≈ 7.9 nM)
